Data as given in patent US20060069132A1, “Azolecarboxamide herbicides” (priority 2004, published 2006).

How the values were obtained:
Test in all cases: Test C pre-/postemergence herbicide test
bermudagrass = type: in vivo, Cynodon dactylon
How it was run: (§1)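 Pre/post spray; non-phytotoxic solvent + surfactant. Post-timing 1–4 leaves, 2–18 cm. Read-out: visual % control vs untreated, day 12–14, greenhouse.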

Surinam grass = type: in vivo, Urochloa decumbens
How it was run: as §1

cocklebur = type: in vivo, Xanthium strumarium
How it was run: as §1

corn = type: in vivo, Zea mays
How it was run: as §1

large crabgrass = type: in vivo, Digitaria sanguinalis
How it was run: as §1

giant foxtail = type: in vivo, Setaria faberi
How it was run: as §1

goosegrass = type: in vivo, Eleusine indica
How it was run: as §1

kochia = type: in vivo, Kochia scoparia
How it was run: as §1

[1] = tested on: common (oilseed) sunflower; type: in vivo, Helianthus annuus
How it was run: as §1

[2] = 62 g ai/ha, preemergence, scale 0 to 100, 0 no effect, 100 complete control
[3] = 125 g ai/ha, scale 0 (no effect) to 100 (complete control), visual, 12 to 14 days, preemergence
[4] = 250 g ai/ha, scale 0 to 100 (0 no effect, 100 complete control), visual, 12 to 14 days, preemergence
[5] = Preemergence, 500 g ai/ha, scale 0 to 100, 0 no effect, 100 complete control
[6] = 62 g ai/ha, preemergence, scale 0 to 100
[7] = 250 g ai/ha, scale 0-100, preemergence
[8] = 500 g ai/ha, scale 0 to 100 (0 no effect, 100 complete control), visual, 12 to 14 days, preemergence

## CCNC(=O)c1ccnc(NC(=O)c2cc(C(C)(C)C)nn2CC)c1 [Compound 152]
bermudagrass; [2]
  Plant response rating, Bermudagrass: 85
bermudagrass; [3]
  Plant response rating, Bermudagrass: 90
bermudagrass; [4]
  Plant response rating, Bermudagrass: 100
bermudagrass; [5]
  Bermudagrass plant response rating: 100
Surinam grass; [6]
  Plant response rating, Surinam Grass: 40
Surinam grass; [3]
  Plant response rating, Surinam Grass: 60
Surinam grass; [5]
  Surinam Grass plant response rating: 100
cocklebur; [3]
  Plant response rating, Cocklebur: 65
cocklebur; [4]
  Plant response rating, Cocklebur: 65
cocklebur; [5]
  Cocklebur plant response rating: 100
corn; [6]
  Plant response rating, Corn: 40
corn; [3]
  Plant response rating, Corn: 45
corn; [4]
  Plant response rating, Corn: 50
corn; [5]
  Corn plant response rating: 70
Large crabgrass; [6]
  Plant response rating, Crabgrass, Large: 100
Large crabgrass; [3]
  Plant response rating, Crabgrass, Large: 100
Large crabgrass; [4]
  Plant response rating, Crabgrass, Large: 100
Large crabgrass; [5]
  Crabgrass, Large plant response rating: 100
Giant foxtail; [6]
  Plant response rating, Foxtail, Giant: 70
Giant foxtail; [3]
  Plant response rating, Foxtail, Giant: 100
Giant foxtail; [4]
  Plant response rating, Foxtail, Giant: 100
Giant foxtail; [5]
  Foxtail, Giant plant response rating: 100
goosegrass; [6]
  Plant response rating, Goosegrass: 80
goosegrass; [3]
  Plant response rating, Goosegrass: 100
goosegrass; [5]
  Goosegrass plant response rating: 100
kochia; [6]
  Plant response rating, Kochia: 100
kochia; [3]
  Plant response rating, Kochia: 100
kochia; [5]
  Kochia plant response rating: 100
[1]; [6]
  Plant response rating, Sunflower: 0
[1]; [3]
  Plant response rating, Sunflower: 10
[1]; [5]
  Sunflower plant response rating: 70

## CCN(CC)C(=O)c1cccc(NC(=O)c2nn(C(C)(C)C)nc2C)c1 [Compound 418]
bermudagrass; [2]
  Plant response rating, Bermudagrass: 100
bermudagrass; 125 g ai/ha, preemergence
  Plant response rating (0 = no effect, 100 = complete control), Bermudagrass: 100
bermudagrass; [7]
  Plant response rating, Bermudagrass: 100
bermudagrass; [8]
  Plant response rating, Bermudagrass: 100
Surinam grass; [6]
  Plant response rating, Surinam Grass: 50
Surinam grass; 125 g ai/ha, preemergence
  Plant response rating (0 = no effect, 100 = complete control), Surinam Grass: 85
Surinam grass; [8]
  Plant response rating, Surinam Grass: 100
cocklebur; [6]
  Plant response rating, Cocklebur: 0
cocklebur; 125 g ai/ha, preemergence
  Plant response rating (0 = no effect, 100 = complete control), Cocklebur: 0
cocklebur; [7]
  Plant response rating, Cocklebur: 30
cocklebur; [8]
  Plant response rating, Cocklebur: 35
corn; [6]
  Plant response rating, Corn: 0
corn; 125 g ai/ha, preemergence
  Plant response rating (0 = no effect, 100 = complete control), Corn: 10
corn; [7]
  Plant response rating, Corn: 40
corn; [8]
  Plant response rating, Corn: 80
Large crabgrass; [6]
  Plant response rating, Crabgrass, Large: 95
Large crabgrass; 125 g ai/ha, preemergence
  Plant response rating (0 = no effect, 100 = complete control), Crabgrass, Large: 100
Large crabgrass; [7]
  Plant response rating, Crabgrass, Large: 100
Large crabgrass; [8]
  Plant response rating, Crabgrass, Large: 100
Giant foxtail; [6]
  Plant response rating, Foxtail, Giant: 65
Giant foxtail; 125 g ai/ha, preemergence
  Plant response rating (0 = no effect, 100 = complete control), Foxtail, Giant: 95
Giant foxtail; [7]
  Plant response rating, Foxtail, Giant: 100
Giant foxtail; [8]
  Plant response rating, Foxtail, Giant: 100
goosegrass; [6]
  Plant response rating, Goosegrass: 55
goosegrass; 125 g ai/ha, preemergence
  Plant response rating (0 = no effect, 100 = complete control), Goosegrass: 100
goosegrass; [7]
  Plant response rating, Goosegrass: 100
goosegrass; [8]
  Plant response rating, Goosegrass: 100
kochia; [6]
  Plant response rating, Kochia: 65
kochia; 125 g ai/ha, preemergence
  Plant response rating (0 = no effect, 100 = complete control), Kochia: 80
kochia; [7]
  Plant response rating, Kochia: 85
kochia; [8]
  Plant response rating, Kochia: 95
[1]; [6]
  Plant response rating, Sunflower: 0
[1]; 125 g ai/ha, preemergence
  Plant response rating (0 = no effect, 100 = complete control), Sunflower: 0
[1]; [8]
  Plant response rating, Sunflower: 0
